Reference: ChEMBL document CHEMBL1201862, “PubChem BioAssay data set” (2004)
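Briefly, cells in 96-well plates were exposed to five compound concentrations for 48 h, and endpoints were estimated by linear interpolation. GI50 is the concentration that inhibits growth by half.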 The source made the active and inactive calls. Cut-off read from the data, not from the text of the source: active = GI50 up to about 1.1 µM and inactive = higher.

Legend:
Assay in all cases: inhibition of tumour cell growth, NCI panel, 48 h
LOX IMVI = system: LOX IMVI
A498 = system: A498
HCT-116 = system: HCT-116
HOP-92 = system: HOP-92
MDA-MB-435 = system: MDA-MB-435
KM12 = system: KM12
CAKI-1 = system: CAKI-1
Hs-578T = system: Hs-578T
DU-145 = system: DU-145
SNB-75 = system: SNB-75
SK-OV-3 = system: SK-OV-3
UACC-257 = system: UACC-257
OVCAR-8 = system: OVCAR-8
SK-MEL-2 = system: SK-MEL-2
SR = system: SR
MCF7 = system: MCF7
SF-268 = system: SF-268
TK-10 = system: TK-10
SK-MEL-5 = system: SK-MEL-5
SF-539 = system: SF-539

SMILES	GI50 (LOX IMVI)	GI50 (A498)	GI50 (HCT-116)	GI50 (HOP-92)	GI50 (MDA-MB-435)	GI50 (KM12)	GI50 (CAKI-1)	GI50 (Hs-578T)	GI50 (DU-145)	GI50 (SNB-75)	GI50 (SK-OV-3)	GI50 (UACC-257)	GI50 (OVCAR-8)	GI50 (SK-MEL-2)	GI50 (SR)	GI50 (MCF7)	GI50 (SF-268)	GI50 (TK-10)	GI50 (SK-MEL-5)	GI50 (SF-539)
COCN1C(=O)[C@@H]2C[C@@H](O)CN2C(=O)c2ccccc21	> 100 µM (inactive)	> 100 µM (inactive)	> 100 µM (inactive)	> 100 µM (inactive)	> 100 µM (inactive)	> 100 µM (inactive)	> 100 µM (inactive)	> 100 µM (inactive)	> 100 µM (inactive)	> 100 µM (inactive)	> 100 µM (inactive)	> 100 µM (inactive)	> 100 µM (inactive)	> 100 µM (inactive)	> 100 µM (inactive)	> 100 µM (inactive)	> 100 µM (inactive)	> 100 µM (inactive)	> 100 µM (inactive)	–
COc1cc(-c2c3c(cc4c2OCO4)[C@@H](Nc2ccc(-c4ccc(-c5ccc(N[C@@H]6c7cc8c(cc7C(c7cc(OC)c(O)c(OC)c7)[C@H]7C(=O)OC[C@H]67)OCO8)cc5)cc4)cc2)[C@H]2COC(=O)[C@@H]2C3)cc(OC)c1O (some centres not stated)	4.13 µM (inactive)	4.62 µM (inactive)	1.73 µM (inactive)	4.55 µM (inactive)	1.69 µM (inactive)	1.85 µM (inactive)	2.65 µM (inactive)	2.6 µM (inactive)	1.93 µM (inactive)	< 0.01 µM (active)	2.65 µM (inactive)	10.6 µM (inactive)	1.61 µM (inactive)	–	2.2 µM (inactive)	2.82 µM (inactive)	2.33 µM (inactive)	2.38 µM (inactive)	2.28 µM (inactive)	< 0.01 µM (active)
OCCN(C1=NCCN1)/[N+](=C\c1ccccn1)[CH-]c1ccccn1	> 100 µM (inactive)	> 100 µM (inactive)	> 100 µM (inactive)	–	> 100 µM (inactive)	> 100 µM (inactive)	> 100 µM (inactive)	> 100 µM (inactive)	> 100 µM (inactive)	> 100 µM (inactive)	> 100 µM (inactive)	> 100 µM (inactive)	> 100 µM (inactive)	–	8.87 µM (inactive)	> 100 µM (inactive)	> 100 µM (inactive)	–	> 100 µM (inactive)	> 100 µM (inactive)
N#CC1Cc2cc3c(cc21)OCO3 (configuration not stated)	> 100 µM (inactive)	> 100 µM (inactive)	> 100 µM (inactive)	> 100 µM (inactive)	> 100 µM (inactive)	> 100 µM (inactive)	> 100 µM (inactive)	> 100 µM (inactive)	> 100 µM (inactive)	> 100 µM (inactive)	–	> 100 µM (inactive)	> 100 µM (inactive)	> 100 µM (inactive)	> 100 µM (inactive)	> 100 µM (inactive)	–	> 100 µM (inactive)	> 100 µM (inactive)	> 100 µM (inactive)
O=C(NC1=C(Cl)C(=O)c2ccccc2C1=O)C(=O)C(C(=O)c1ccc2ccccc2c1)C1OC(=O)c2ccccc21 (configuration not stated)	1.08 µM (active)	4.68 µM (inactive)	3.52 µM (inactive)	–	1.7 µM (inactive)	3.09 µM (inactive)	6.34 µM (inactive)	6.25 µM (inactive)	10.6 µM (inactive)	2.87 µM (inactive)	13.2 µM (inactive)	2.19 µM (inactive)	4.61 µM (inactive)	4.94 µM (inactive)	3.31 µM (inactive)	2.74 µM (inactive)	4.53 µM (inactive)	25.6 µM (inactive)	0.564 µM (active)	2.95 µM (inactive)
CSC1=N/C(=C\c2cccs2)C(=O)N1CN1CCCCC1	23.1 µM (inactive)	> 100 µM (inactive)	52.5 µM (inactive)	28.2 µM (inactive)	> 100 µM (inactive)	50.2 µM (inactive)	–	18.3 µM (inactive)	> 100 µM (inactive)	31.9 µM (inactive)	> 100 µM (inactive)	–	51.3 µM (inactive)	> 100 µM (inactive)	32.2 µM (inactive)	45.2 µM (inactive)	37.8 µM (inactive)	> 100 µM (inactive)	66.8 µM (inactive)	–
C1=N\CCOCC/N=C/c2ccccc2OCc2cccc(n2)COc2ccccc2/1	–	> 25 µM (inactive)	4.99 µM (inactive)	10.4 µM (inactive)	0.778 µM (active)	7.85 µM (inactive)	–	6.82 µM (inactive)	6.61 µM (inactive)	2.83 µM (inactive)	11.2 µM (inactive)	8.11 µM (inactive)	6.38 µM (inactive)	8.63 µM (inactive)	0.977 µM (active)	4.32 µM (inactive)	9.4 µM (inactive)	6.27 µM (inactive)	–	3.2 µM (inactive)
O=c1[nH]nc(Cc2ccccc2)n1/N=C/c1c(O)ccc2ccccc12	54 µM (inactive)	18.5 µM (inactive)	20.2 µM (inactive)	19.2 µM (inactive)	29.2 µM (inactive)	19.7 µM (inactive)	28.2 µM (inactive)	19.4 µM (inactive)	57 µM (inactive)	17.7 µM (inactive)	–	35.3 µM (inactive)	21 µM (inactive)	38.1 µM (inactive)	21.3 µM (inactive)	37.9 µM (inactive)	24.6 µM (inactive)	33 µM (inactive)	18.6 µM (inactive)	19.8 µM (inactive)
CN(C)N1C(=O)CC2(CCN(CCCC(=O)c3ccc(F)cc3)CC2)C1=O	> 100 µM (inactive)	> 100 µM (inactive)	> 100 µM (inactive)	–	> 100 µM (inactive)	> 100 µM (inactive)	> 100 µM (inactive)	> 100 µM (inactive)	> 100 µM (inactive)	> 100 µM (inactive)	> 100 µM (inactive)	> 100 µM (inactive)	> 100 µM (inactive)	> 100 µM (inactive)	> 100 µM (inactive)	> 100 µM (inactive)	> 100 µM (inactive)	> 100 µM (inactive)	> 100 µM (inactive)	> 100 µM (inactive)
COc1cc([C@H]2CC(=O)C[C@@H](c3cc(OC)c(OC)c(OC)c3)C23C(=O)c2ccccc2C3=O)cc(OC)c1OC	> 100 µM (inactive)	–	> 100 µM (inactive)	> 100 µM (inactive)	> 100 µM (inactive)	> 100 µM (inactive)	> 100 µM (inactive)	> 100 µM (inactive)	> 100 µM (inactive)	45.1 µM (inactive)	> 100 µM (inactive)	> 100 µM (inactive)	> 100 µM (inactive)	> 100 µM (inactive)	> 100 µM (inactive)	> 100 µM (inactive)	> 100 µM (inactive)	> 100 µM (inactive)	> 100 µM (inactive)	> 100 µM (inactive)
COc1ccc2cc(CNCCCCCCCCNCc3ccc4cc(OC)ccc4c3)ccc2c1	3.94 µM (inactive)	6.38 µM (inactive)	4.42 µM (inactive)	5.32 µM (inactive)	4.94 µM (inactive)	3.92 µM (inactive)	6.67 µM (inactive)	8.77 µM (inactive)	6.97 µM (inactive)	3.41 µM (inactive)	–	6.76 µM (inactive)	6.61 µM (inactive)	4.71 µM (inactive)	1.12 µM (active)	4.27 µM (inactive)	4.34 µM (inactive)	3.37 µM (inactive)	11.7 µM (inactive)	–
CC(C)(C)OC(=O)C1CCC/C1=N/Nc1ccc([N+](=O)[O-])cc1[N+](=O)[O-] (configuration not stated)	17.7 µM (inactive)	13 µM (inactive)	21.4 µM (inactive)	47.1 µM (inactive)	21.2 µM (inactive)	54.7 µM (inactive)	39.4 µM (inactive)	48.2 µM (inactive)	47.2 µM (inactive)	19.1 µM (inactive)	43 µM (inactive)	–	27.5 µM (inactive)	–	26.1 µM (inactive)	30 µM (inactive)	41.8 µM (inactive)	43.7 µM (inactive)	13.9 µM (inactive)	–
CC1=COC(C)(C=C(C#N)C#N)CC1 (configuration not stated)	–	27 µM (inactive)	33 µM (inactive)	> 10 µM (inactive)	32.4 µM (inactive)	34.8 µM (inactive)	–	15.4 µM (inactive)	> 100 µM (inactive)	65.8 µM (inactive)	> 100 µM (inactive)	57.3 µM (inactive)	52.6 µM (inactive)	–	31 µM (inactive)	36.6 µM (inactive)	> 100 µM (inactive)	> 100 µM (inactive)	58.1 µM (inactive)	25.1 µM (inactive)
Cc1[nH]c(-c2ccccc2)c(O)c1C(=O)OC12CC3CC(CC(C3)C1)C2	–	20.5 µM (inactive)	16.7 µM (inactive)	18.8 µM (inactive)	15 µM (inactive)	5.01 µM (inactive)	20.1 µM (inactive)	10.3 µM (inactive)	15.6 µM (inactive)	10.8 µM (inactive)	14.7 µM (inactive)	16.5 µM (inactive)	12.9 µM (inactive)	16.7 µM (inactive)	12.6 µM (inactive)	14.1 µM (inactive)	13.9 µM (inactive)	–	14.6 µM (inactive)	11 µM (inactive)
COc1cc([C@@H]2C3C(=O)c4ccccc4C3[C@@H](c3cc(OC)c(OC)c(OC)c3)C23Cc2ccccc2C3=O)cc(OC)c1OC (some centres not stated)	> 100 µM (inactive)	> 100 µM (inactive)	> 100 µM (inactive)	1.87 µM (inactive)	> 100 µM (inactive)	> 100 µM (inactive)	2.75 µM (inactive)	> 100 µM (inactive)	> 100 µM (inactive)	21.8 µM (inactive)	> 100 µM (inactive)	> 100 µM (inactive)	> 100 µM (inactive)	–	> 100 µM (inactive)	15.4 µM (inactive)	> 100 µM (inactive)	> 100 µM (inactive)	> 100 µM (inactive)	> 100 µM (inactive)
